≈ marks a conversion by molar mass, not a printed value. Like-named read-outs stand apart in the source and are kept apart here.
Legend:
[1] = Solubility (French Pharmacopoeia terms / in water); assay type: physicochemical
Method: 32232 RP and 35391 RP are of particular interest because of their activity on fungi and yeasts. 32232 RP, in the form of the internal salt, is characterised by the following physical properties:
Solubility: 35391 RP is soluble in water at the rate of about 10 mg/cc.

[2] = Potentiometric titration of an aqueous solution; assay type: physicochemical; conditions: water
Excerpt: The potentiometric equivalent is about 390.
The potentiometric equivalent is about 400.
The potentiometric equivalent is about 370.

[3] = system: bacteria; experiment: Bacteriostatic activity towards bacteria; assay type: cell-based
[4] = Toxicity in mice; conditions: mouse, in vivo; mice, oral; read-out: 50% lethal dose (LD50)
[5] = Anti-fungal activity in vitro by dilution method; assay type: cell-based; conditions: Trichophyton rubrum; 95 to 100% inhibition; Microsporum rubrum; read-out: Minimum active concentration (AC 95-100)
Method: (§1) Anti-fungal activity in vitro: The anti-fungal activity of 32232 RP and of 35391 RP towards a certain number of fungi has been determined by one of the dilution methods usually employed for this purpose. For each fungus, the smallest concentration of active substance which, under defined conditions, causes 95 to 100% inhibition of the fungus (AC 95-100) was determined. The results of the various determinations are summarised in Table III below, where the minimum active concentrations are expressed in micrograms of substance per cc. of test medium.

[6] = system: Aspergillus fumigatus; experiment: Anti-fungal activity in vitro by dilution method; assay type: cell-based; conditions: 95 to 100% inhibition, read-out: Minimum active concentration (AC 95-100)
Method: as §1

[7] = system: Aspergillus niger; experiment: Anti-fungal activity in vitro by dilution method; assay type: cell-based; conditions: 95 to 100% inhibition, read-out: Minimum active concentration (AC 95-100)
Method: as §1

[8] = system: Blastomyces dermatitidis; experiment: Anti-fungal activity in vitro by dilution method; assay type: cell-based; conditions: 95 to 100% inhibition, read-out: Minimum active concentration (AC 95-100)
Method: as §1

[9] = system: Botrytis cinerea; experiment: Anti-fungal activity in vitro by dilution method; assay type: cell-based; conditions: 95 to 100% inhibition, read-out: Minimum active concentration (AC 95-100)
Method: as §1

[10] = system: Candida albicans Hi 7; experiment: Anti-fungal activity in vitro by dilution method; assay type: cell-based; conditions: HI7, 95 to 100% inhibition, read-out: Minimum active concentration (AC 95-100)
Method: as §1

[11] = system: Candida albicans IP 200; experiment: Anti-fungal activity in vitro by dilution method; assay type: cell-based; conditions: IP200, 95 to 100% inhibition, read-out: Minimum active concentration (AC 95-100)
Method: as §1

[12] = system: Candida albicans Pa 1; experiment: Anti-fungal activity in vitro by dilution method; assay type: cell-based; conditions: PA1, 95 to 100% inhibition, read-out: Minimum active concentration (AC 95-100)
Method: as §1

[13] = system: Candida krusei IP 208; experiment: Anti-fungal activity in vitro by dilution method; assay type: cell-based; conditions: Pichia kudriavzevii, IP208, 95 to 100% inhibition, read-out: Minimum active concentration (AC 95-100)
Method: as §1

[14] = system: Epidermophyton floccosum; experiment: Anti-fungal activity in vitro by dilution method; assay type: cell-based; conditions: 95 to 100% inhibition, read-out: Minimum active concentration (AC 95-100)
Method: as §1

[15] = system: Fusarium oxysporum; experiment: Anti-fungal activity in vitro by dilution method; assay type: cell-based; conditions: 95 to 100% inhibition, read-out: Minimum active concentration (AC 95-100)
Method: as §1

[16] = system: Hansenula anomala; experiment: Anti-fungal activity in vitro by dilution method; assay type: cell-based; conditions: 95 to 100% inhibition, read-out: Minimum active concentration (AC 95-100)
Method: as §1

[17] = system: Microsporum canis; experiment: Anti-fungal activity in vitro by dilution method; assay type: cell-based; conditions: 95 to 100% inhibition, read-out: Minimum active concentration (AC 95-100)
Method: as §1

[18] = system: Mucor corymbifer; experiment: Anti-fungal activity in vitro by dilution method; assay type: cell-based; conditions: Lichtheimia corymbifera, 95 to 100% inhibition, read-out: Minimum active concentration (AC 95-100)
Method: as §1

[19] = system: Penicillium digitatum; experiment: Anti-fungal activity in vitro by dilution method; assay type: cell-based; conditions: 95 to 100% inhibition, read-out: Minimum active concentration (AC 95-100)
Method: as §1

[20] = system: Rhizopus nigricans; experiment: Anti-fungal activity in vitro by dilution method; assay type: cell-based; conditions: Rhizopus stolonifer, 95 to 100% inhibition, read-out: Minimum active concentration (AC 95-100)
Method: as §1

[21] = system: Saccharomyces cerevisiae; experiment: Anti-fungal activity in vitro by dilution method; assay type: cell-based; conditions: 95 to 100% inhibition, read-out: Minimum active concentration (AC 95-100)
Method: as §1

[22] = system: Saccharomyces ellipsoideus; experiment: Anti-fungal activity in vitro by dilution method; assay type: cell-based; conditions: 95 to 100% inhibition, read-out: Minimum active concentration (AC 95-100)
Method: as §1

[23] = system: Saccharomyces pastorianus; experiment: Anti-fungal activity in vitro by dilution method; assay type: cell-based; conditions: 95 to 100% inhibition, read-out: Minimum active concentration (AC 95-100)
Method: as §1

[24] = system: Trichophyton mentagrophytes; experiment: Anti-fungal activity in vitro by dilution method; assay type: cell-based; conditions: 95 to 100% inhibition, read-out: Minimum active concentration (AC 95-100)
Method: as §1

[25] = system: Candida albicans; experiment: Anti-fungal activity in vivo, generalised candidosis in mice; parameters: species or system Candida albicans in mice; conditions: orally or subcutaneously, between 25 mg/kg and 200 mg/kg per day for 4 consecutive days
[26] = system: mice; experiment: Toxicity in mice; conditions: mouse, in vivo, 1000 mg/kg
[27] = 0.1M hydrochloric acid, read-out: apparent pKa of basic group

SMILES	pKa [2, 27]	bacteriostatic activity towards bacteria [3]	MIC [5]	MIC [6]	MIC [7]	MIC [8]	MIC [9]	MIC [10]	MIC [11]	MIC [12]	MIC [13]	MIC [14]	MIC [15]	MIC [16]	MIC [17]	MIC [18]	MIC [19]	MIC [20]	MIC [21]	MIC [22]	other results
Nc1ncnc2c1ncn2C1OC(CC(N)CCC(N)C(=O)O)C(O)C1O (stereo not drawn) [32232 RP]	8.1	generally devoid of bacteriostatic activity	> 500 µg/mL	> 500 µg/mL	> 500 µg/mL	5 µg/mL (≈ 13.1 µM)	> 500 µg/mL	5 µg/mL (≈ 13.1 µM)	5 µg/mL (≈ 13.1 µM)	3 µg/mL (≈ 7.87 µM)	4 µg/mL (≈ 10.5 µM)	> 500 µg/mL	> 500 µg/mL	2 µg/mL (≈ 5.24 µM)	> 500 µg/mL	> 500 µg/mL	15 µg/mL (≈ 39.3 µM)	> 500 µg/mL	0.3 µg/mL (≈ 0.787 µM)	0.9 µg/mL (≈ 2.36 µM)	Solubility ([1]; in acetone, internal salt, French Pharmacopoeia): virtually insoluble; Solubility ([1]; in dimethylformamide, internal salt, French Pharmacopoeia): very slightly soluble; Solubility ([1]; in methanol, internal salt, French Pharmacopoeia): very slightly soluble; Solubility ([1]; in water, internal salt, French Pharmacopoeia): easily soluble; pKa ([2]; 0.1M sodium hydroxide, read-out: apparent pKa of weak acid group): 9.8; LD50 [4]: > 1000 mg/kg; MIC [23]: 0.3 µg/mL (≈ 0.787 µM); MIC [24]: > 500 µg/mL; Anti-fungal activity in vivo against generalised candidosis [25]: particularly active
Nc1ncnc2c1ncn2C1OC(CC2CCC(N)C(=O)N2)C(O)C1O (stereo not drawn) [35391 RP]	7.7	generally devoid of bacteriostatic activity	300 µg/mL (≈ 826 µM)	> 500 µg/mL	> 500 µg/mL	60 µg/mL (≈ 165 µM)	> 500 µg/mL	75 µg/mL (≈ 206 µM)	70 µg/mL (≈ 193 µM)	40 µg/mL (≈ 110 µM)	60 µg/mL (≈ 165 µM)	250 µg/mL (≈ 688 µM)	> 500 µg/mL	35 µg/mL (≈ 96.3 µM)	300 µg/mL (≈ 826 µM)	> 500 µg/mL	25 µg/mL (≈ 68.8 µM)	> 500 µg/mL	10 µg/mL (≈ 27.5 µM)	15 µg/mL (≈ 41.3 µM)	Solubility ([1]; in water, read-out: Solubility): ~10000 µg/mL (≈ 27500 µM); Toxicity [26]: non-toxic; MIC [23]: 7 µg/mL (≈ 19.3 µM); MIC [24]: 350 µg/mL (≈ 963 µM); Anti-fungal activity in vivo against generalised candidosis [25]: particularly active

From patent US4189349A, “α,δ-Diaminoacid and its lactam” (Rhone-Poulenc Industries, priority 1977, dated 1980)
